Reference: publication PMC9475553, “SHF Acts as a Novel Tumor Suppressor in Glioblastoma Multiforme by Disrupting STAT3 Dimerization” (Advanced Science, 2022)

Key:
[1] = tested on: U87 xenograft tumor cell proliferation; test: EdU incorporation in intracranial U87 xenografts; assay type: in vivo, mouse; conditions: 10 µg i.p. once every 2 days; EdU 24 h prior to sacrifice; vs SC; n = 6, p < 0.01
Text: Considering that the SH2 domain predominantly represents the inhibition of SHF on STAT3 dimerization and activity, we speculated that this domain may be an optional target for GBM suppression. To this end, we analyzed the mechanical interaction of SHF and STAT3. The structures of human SHF (aa265‐421) and STAT3 (aa130‐715). both of which spanned their respective SH2 domain. were simulated by Swiss‐Model server (https://swissmodel.expasy.org/). To simulate the interaction of SHF and STAT3, Discovery studio 2018 was employed to complete protein‐protein docking using ZDOCK as an initial stage. A rigid body molecular docking algorithm utilizing a fast Fourier transform (FFT) algorithm was used to further improve performance for searching in translational space. […] Next, we determined the implication of C16 in tumor inhibition. […] A concentration of 25 uM was determined to be adequate for use in the subsequent experiments. […]
Figure 7 Peptide derived from the STAT3‐binding sites of SHF is an effective GBM suppressive strategy. […] B) IF staining determined the cell penetrability and nuclear‐localization of C16. […] The relative quantification of STAT3 dimerization was listed. […] The relative quantification of STAT3/DNMT1 interaction was listed. […] The relative quantification of STAT3/DNMT1 interaction was listed. […]

[2] = tested on: STAT3 transcriptional activity; test: STAT3 transcriptional reporter (SIE luciferase) assay in U87 cells; assay type: cell-based, human; conditions: C16 for 12 h, n = 3, p < 0.01
Description: Figure 7 Peptide derived from the STAT3‐binding sites of SHF is an effective GBM suppressive strategy. A) Binding model between SHF and STAT3 using ZDOCK server. […] B) IF staining determined the cell penetrability and nuclear‐localization of C16. U251 cells were incubated with C16 or SC for 2 h and performed IF staining using the indicated antibodies. Bars, 10 µm. C) The statical analysis of adsorption equilibrium assay detecting the binding of C16 and SC with recombinant STAT3. D) Pull‐down assay indicating C16 binds STAT3. GST‐STAT3 was incubated with C16 or SC for 2 h, and the pull‐down assay was performed using Anti‐His magnetic beads. E) IP assay showing the effect of C16 on STAT3 dimerization. 293T cells transfected with indicated vectors were incubated with C16 for 2 h. The relative quantification of STAT3 dimerization was listed. F) IP assay detecting the effect of C16 on the interaction of STAT3 and DNMT1. […] The relative quantification of STAT3/DNMT1 interaction was listed. […] The relative quantification of STAT3/DNMT1 interaction was listed. […] Positive cells were quantified 20 randomly selected fields per mouse (n = 6, Student's t‐test, **p < 0.01). […]
STAT3 transcriptional activity was evaluated by a luciferase reporter system according our previously study.^[ [19] ^] […] Cells were collected, lysed, and measured using the Dual‐Glo Luciferase Assay System kit (Promega).

In the case of “C16: peptide spanning SHF amino acids 388–421, palmitic acid at the N-terminus, amidated C-terminus, 3× His tags added to the C-terminal (PFSSVPEIVHHYASRKLPIKGAEHMSLLYPVAIR; palmitic acid at the N-terminus; amidated C-terminus; left off: 3× His tags, C-terminal, kept)”, the “EdU positive cells in xenografts” value [1] was “significantly decreased” and the STAT3 transcriptional activity [2] was “significant decrease”.
